These results are taken from patent US20090275539A1, “Nuclear Transcription Factors Regulators” (CTG PHARMA S.R.L., priority 2004, published 2009).

The test system of one assay is heme oxygenase-1 (OH-1). In words: Zymosan-induced OH-1 protein expression in Raw 264.7 macrophages (western blot). The format is cell-based, murine. The note with it: for OH-1 protein expression, band intensity: zymosan-stimulated Raw 264.7, 18 hrs. The protocol:
(§1) For the screening approach it was decided to test the compounds object of the present invention and fulfilling the structural general criteria previously described for heme oxygenase-1 (OH-1) and inducible nitric oxide synthase (iNOS). The enzyme tests were performed as described by Vicente A M et al. (Br. J. Pharmacol. 2001, 133, 920-6). The formation of both these two enzymes was associated with the activation of transcription factors, and NF-kB particularly.
(§2) In brief, Raw 264.7 murine macrophage cell line were maintained in a proper culture medium supplemented with 10% fetal bovine serum, 2 mM L-glutamine and penicillin/streptomycin. Suspensions of zymosan A from Saccharomyces cerevisiae in saline were used. After incubation with zymosan and/or test compounds for 18 hrs, cells supernatants were collected to measure protein expression, by western blot analysis. After incubation, macrophages were lysed in 100 microliters of buffer (1% Triton X-100, 1% deoxicholic acid, 20 mM NaCl and 25 mM Tris, pH 7.4) and then centrifuged at 4° C. for 5 min at 10,000×g. The protein content was determined by the Bradford method using bovine serum albumin as standard. Cell lysate (40 micrograms of protein) was mixed with Laemmli sample buffer under reducing conditions. […] Membranes were incubated with specific antibodies: polyclonal antibody against iNOS (1/1000, Cayman Chemical) and anti-OH-1 monoclonal antibody (1/2000, Stressgen). Blots were washed and incubated with peroxidase-conjugated goat IgG (1/20,000). The immunoreactive bands were visualized by an enhanced chemiluminescence system and band intensity quantitated using computer-assisted densitometry.
A general note: Immunoblotting shows a protein as a band on a membrane.

In assay [1] the test system is inducible nitric oxide synthase (iNOS). In words: Zymosan-induced iNOS protein expression in Raw 264.7 macrophages (western blot). It is filed as cell-based, murine. The note with it: for INOS protein expression, band intensity: zymosan-stimulated Raw 264.7, 18 hrs. The protocol:
as §1, §2

Another assay has as its system NF-kB. The assay is described as follows: NF-kB-CAT reporter gene assay (CAT activity). The note with it: test compound 100 μm; for NF-kB activity: % of CAT synthesis, TNF-stimulated: human TNF alpha 100 ng/ml. It is filed as cell-based. How it is done: The NF-kB-CAT reporter gene cell line (Lenardo M J et al., Cell 58, 227-9, 1989) and. L29/Ji6 cells (Fratelli M et al, Antioxidants & Redox Signalling 5, 229-235, 2003) were prepared as previously described. Human TNF alpha (100 ng/ml) was used. The chloramphenicol-acetyltransferase (CAT) activity was measured by adding 40 microliters of Tris-HCl buffer (250 mM, ph 7.5) and D-threo-[dichloroacetyl]1,2 ^14C chloramphenicol (10 microliters, 8.3×10^−2 mCi/sample) The reaction was started by the addition of n-butyryl coenzyme A. After 2 h at 37° C., the reaction was stopped by extraction with hexane/xylene (2:1). The upper organic phase containing the reaction product was then recovered, and radioactivity was counted on a beta-counter. The activity on NF-kB was expressed as […].

In another assay the test system is IL-6. The assay is described as follows: Expression of NF-kB regulated cytokine IL-6 in HeLa cells (ELISA). The format is cell-based. The note with it: for Inhibition of the production of IL-6: after 120 minutes. The protocol:
(§3) The cells were stimulated with 100 μmol of compound described in example 6 with TNF (200 E/ml) or with PMA (50 ng/ml) and the concentration of IL-6 or IL-8 was measured in the cell supernatant at various interval using ELISA (British Biotechnology Products Ltd.).
A general note: An ELISA detects its analyte on a solid surface through an enzyme-linked reagent.

Another assay concerns IL-8. In words: Expression of NF-kB regulated cytokine IL-8 in HeLa cells (ELISA). The note with it: for IL-8 concentration in cell supernatant: 120′; for Inhibition of the production of IL-8: after 120 minutes. It is filed as cell-based. The protocol: as §3
Setting [2] is: zymosan-stimulated Raw 264.7, summary of table I.

For the molecule `CC(=O)Sc1ccccc1C(=O)Oc1ccc(CO[N+](=O)[O-])cc1` [ATANPE, acetyl thiosalicylic acid 4-(nitroxymethyl)phenyl ester], the “OH-1 protein expression, band intensity” value in the assay on heme oxygenase-1 (OH-1) (concentration 10 μmol) is 293 percentage with respect to zymosan. Further, the “Effect on OH-1 production (in words)” value in the assay with heme oxygenase-1 (OH-1) (setting [2]) was “stimulate OH-1 production”. The “INOS protein expression, band intensity” value in assay [1] (concentration 10 μmol) was 48 percentage with respect to zymosan. Moreover, the “Effect on iNOS formation (in words)” value in assay [1] (setting [2]) is on record as “inhibit iNOS formation”. In the assay on NF-kB, the “NF-kB activity: % of CAT synthesis, Basal” value came to 31%. In the assay on NF-kB, the “NF-kB activity: % of CAT synthesis, TNF-stimulated” value was found to be 26%. For the same molecule, the “IL-6 concentration in cell supernatant” value turned out to be 920 pg/mL with IL-6 (PMA (50 ng/ml) + 100 μmol compound, 15′); 3138 pg/mL in the assay with IL-6 (PMA (50 ng/ml) + 100 μmol compound, 120′); 945 pg/mL in the assay on IL-6 (TNF (200 E/ml) + 100 μmol compound, 15′); 1738 pg/mL with IL-6 (TNF (200 E/ml) + 100 μmol compound, 120′). In addition, the “Inhibition of the production of IL-6” value was found to be 87% in the assay with IL-6 (first of two values printed with '(TNF stimulation)') and 74% in the assay with IL-6 (second of two values printed with '(TNF stimulation)'). Moreover, the “IL-8 concentration in cell supernatant” value worked out at 12 pg/mL in the assay on IL-8 (PMA (50 ng/ml) + 100 μmol compound) and 6 pg/mL with IL-8 (TNF (200 E/ml) + 100 μmol compound). Also, the entries for the “Inhibition of the production of IL-8” value in the assay on IL-8 (first of two values printed with '(PMA stimulation)') and in the assay with IL-8 (second of two values printed with '(PMA stimulation)') were 90% and 97%, respectively.

Regarding `CC(=O)Oc1ccccc1C(=O)O` [Aspirin, reference compound], in the assay on NF-kB, the “NF-kB activity: % of CAT synthesis, Basal” value came to 100% and the “NF-kB activity: % of CAT synthesis, TNF-stimulated” value worked out at 92%.

On to `C[C@@H]1C[C@H]2[C@@H]3CCC4=CC(=O)C=C[C@]4(C)[C@@]3(F)[C@@H](O)C[C@]2(C)[C@@]1(O)C(=O)CO` [Dexamethasone, dexamethasone], for which, in the assay with heme oxygenase-1 (OH-1) (concentration 1 μmol), the “OH-1 protein expression, band intensity” value is listed as 20 percentage with respect to zymosan. Also, in assay [1] (concentration 1 μmol), the “INOS protein expression, band intensity” value is given as 85 percentage with respect to zymosan.

On to `COc1ccc2c(c1)c(CC(=O)O)c(C)n2C(=O)c1ccc(Cl)cc1` [Indomethacin, indomethacin], for which the “OH-1 protein expression, band intensity” value in the assay on heme oxygenase-1 (OH-1) (concentration 1 μmol) is listed as 65 percentage with respect to zymosan. The “INOS protein expression, band intensity” value in assay [1] (concentration 1 μmol) is recorded as 78 percentage with respect to zymosan.

Turning to `CC(=O)N[C@@H](CS)C(=O)O` [N-acetylcysteine], the “OH-1 protein expression, band intensity” value in the assay on heme oxygenase-1 (OH-1) (concentration 100 μmol) is 44 percentage with respect to zymosan. For the same molecule, the “INOS protein expression, band intensity” value in assay [1] (concentration 100 μmol) is recorded as 80 percentage with respect to zymosan.

Turning to `CS(=O)(=O)Nc1ccc([N+](=O)[O-])cc1OC1CCCCC1` [NS398], the “OH-1 protein expression, band intensity” value in the assay with heme oxygenase-1 (OH-1) (concentration 10 μmol) is given as 72 percentage with respect to zymosan. Further, the “INOS protein expression, band intensity” value in assay [1] (concentration 10 μmol) is reported as 120 percentage with respect to zymosan.

As to `CC(c1cc2ccccc2s1)N(O)C(N)=O` (stereo not shown) [Zileuton, zileuton], the “OH-1 protein expression, band intensity” value in the assay with heme oxygenase-1 (OH-1) (concentration 10 μmol) was 125 percentage with respect to zymosan. Moreover, the “INOS protein expression, band intensity” value in assay [1] (concentration 10 μmol) is given as 112 percentage with respect to zymosan.
